k = constrained ethyl (cEt); d = 2'-deoxy (DNA)
Key:
[1] = Liver transaminase levels (ALT, AST) in serum, Example 3; assay type: in vivo; details: mice serum
Text: (§1) Each treatment group consisted of 4 animals.

[2] = tested on: mouse Metastasis associated lung adenocarcinoma transcript 1 (Malat-1); assay: In vivo dose response of Isis No. 556062 with and without FTY-720 pre-treatment (Malat-1 RNA, Example 3); details: mice, Liver
Procedure: as §1
Malat-1 RNA levels were determined as described in Example 2. The results are presented in Table 18 as average Malat-1 RNA levels for each treatment group. Results for groups that received Isis No. 556062 alone are relative the group that received only PBS, and results for groups that received Isis No. 556062 and 1 mg/kg FTY-720 are relative to the group that received 1 mg/kg FTY-720 and PBS in place of Isis No. 556062.

[3] = 0.3 mg/kg 556062 subcutaneous, FTY-720 dose 0 mg/kg
[4] = 0.3 mg/kg 556062 subcutaneous, FTY-720 dose 1 mg/kg
[5] = 1 mg/kg 556062 subcutaneous, FTY-720 dose 0 mg/kg
[6] = 1 mg/kg 556062 subcutaneous, FTY-720 dose 1 mg/kg
[7] = 3 mg/kg 556062 subcutaneous, FTY-720 dose 0 mg/kg
[8] = 3 mg/kg 556062 subcutaneous, FTY-720 dose 1 mg/kg
[9] = 9 mg/kg 556062 subcutaneous, FTY-720 dose 0 mg/kg
[10] = 9 mg/kg 556062 subcutaneous, FTY-720 dose 1 mg/kg

## 556062 (antisense GGCTTAATGCAGCATT; sugars from the 5' end k3 d10 k3, all phosphorothioate, methylation of C not given here) [compound 556062]
[1]; [3]
  ALT: 24 U/L
  AST: 48 U/L
[1]; [4]
  ALT: 17 U/L
  AST: 48 U/L
[1]; [5]
  ALT: 56 U/L
  AST: 50 U/L
[1]; [6]
  ALT: 18 U/L
  AST: 45 U/L
[1]; [7]
  ALT: 24 U/L
  AST: 58 U/L
[1]; [8]
  ALT: 25 U/L
  AST: 40 U/L
[1]; [9]
  ALT: 31 U/L
  AST: 71 U/L
[1]; [10]
  ALT: 24 U/L
  AST: 46 U/L
[2]; [3]
  Average Malat-1 RNA: 80 % control
[2]; 0.3 mg/kg 556062 subcutaneous, FTY-720 dose 1 mg/kg i.p. daily
  Average Malat-1 RNA: 63 % control
[2]; [5]
  Average Malat-1 RNA: 49 % control
[2]; 1 mg/kg 556062 subcutaneous, FTY-720 dose 1 mg/kg i.p. daily
  Average Malat-1 RNA: 36 % control
[2]; [7]
  Average Malat-1 RNA: 18 % control
[2]; 3 mg/kg 556062 subcutaneous, FTY-720 dose 1 mg/kg i.p. daily
  Average Malat-1 RNA: 19 % control
[2]; [9]
  Average Malat-1 RNA: 11 % control
[2]; 9 mg/kg 556062 subcutaneous, FTY-720 dose 1 mg/kg i.p. daily
  Average Malat-1 RNA: 6 % control
